Laboratory results from patent EP4656642A1, “ESTROGEN RECEPTOR PROTEOLYSIS TARGETING CHIMERA COMPOUND AND USE THEREOF” (GAN & LEE PHARM CO., LTD, priority 2023, dated 2024).

Assays:
Type in all cases: cell-based
[1] = tested on: MCF-7 cells; assay: Inhibition of cell proliferation of MCF-7 cells (CCK-8, 9 days); conditions: treated for 9 days, CCK-8 kit (Table 6)
Description: Test Example 4 Inhibitory effect of the PROTAC compounds disclosed in the present disclosure on cell proliferation of MCF-7 cells
The complete medium required for MCF-7 cells (source ATCC) was DMEM (gibco, Product number :11995-065) basal medium containing 10% fetal bovine serum. MCF-7 cells were inoculated in 96-well plates at a density of 800 cells/well, and different concentrations of the PROTAC compounds 1-55 provided in the embodiments of the present disclosure and a positive control sample ARV-471 (source: Innochem) were prepared to treat cells, and cells were treated at 37°C in a cell culture incubator with 5% CO2 for 9 days. Cell viability was detected using a CCK -8 kit (Beyotime , Product number: C0040) according to the manufacturer's instruction. […] Table 5 IC50 values for inhibition of the proliferation of MCF-7 cells by the PROTAC compounds of the present disclosure and positive control sample

[2] = target: T1, ERα (Homo sapiens, UniProt P03372); assay: Degradation of ERα in MCF-7 cells (immunoblotting, 4 h)
T1 sequence (P03372 1-595): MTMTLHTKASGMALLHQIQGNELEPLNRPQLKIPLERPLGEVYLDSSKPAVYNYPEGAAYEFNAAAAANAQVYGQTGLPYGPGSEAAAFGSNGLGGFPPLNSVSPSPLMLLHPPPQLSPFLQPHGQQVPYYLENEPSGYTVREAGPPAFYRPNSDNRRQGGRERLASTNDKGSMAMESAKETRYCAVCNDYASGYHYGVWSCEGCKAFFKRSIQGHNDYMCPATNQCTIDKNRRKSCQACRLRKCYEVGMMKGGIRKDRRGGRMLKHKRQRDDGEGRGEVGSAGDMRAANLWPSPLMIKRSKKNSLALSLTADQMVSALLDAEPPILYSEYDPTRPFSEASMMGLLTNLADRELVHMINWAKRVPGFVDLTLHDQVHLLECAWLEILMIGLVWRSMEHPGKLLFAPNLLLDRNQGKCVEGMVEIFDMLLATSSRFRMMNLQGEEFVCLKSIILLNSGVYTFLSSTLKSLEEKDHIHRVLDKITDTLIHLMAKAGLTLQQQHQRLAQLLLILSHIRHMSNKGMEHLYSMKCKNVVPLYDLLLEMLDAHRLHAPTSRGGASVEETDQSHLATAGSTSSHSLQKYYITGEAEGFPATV
Experimental: MCF-7 cells were inoculated into 6-well plates at a density of 3×10^5 cells/well and cultured at 37°C, 5% CO2 for 24h. After the cells were attached to the wall, 1µL of the compound solution in dimethyl sulfoxide (final concentration 0.15-1000nM) was added and continued to be cultured in incubator at 37°C with 5% CO2 for 4 h. After 4 h, the culture medium was discarded, and each well was washed once with pre-cooled 1×DPBS, and the cells were lysed with a mixture of 50 µL of RIPA lysis buffer (P0013B, Beyotime) and 1× protease inhibitor (P1005, Beyotime), and then centrifuged at 14,000 g for 30 min at 4°C after resting on ice for 20 min, and the supernatant was carefully collected to detect the protein level of ERα by protein immunoblotting (Immunoblotting).
Protein immunoblotting: The total protein concentration in the collected cell lysate supernatant was determined by BCA Protein Concentration Assay Kit (Enhanced) (P0009, Beyotime). According to the total protein concentration detected by BCA, the protein was adjusted to 1 µg/µL with RIPA lysis buffer and 5× SDS-PAGE protein loading buffer (MB01015, Genscript), and the protein was denatured by water bath at 95°C for 5 min, and then centrifuged after denaturation to enrich the condensate on the wall of the centrifuge tubes as a loading sample. […] At the end of electrophoresis, the proteins in the SDS-PAGE gels were transferred to a PVDF membrane at a constant voltage of 100 V for 60 min. After that, the PVDF membrane corresponding to ERα protein and internal reference protein was cut out and incubated in 1×QµickBlock blocking solution (P0252, Beyotime) for 30 min at room temperature on a shaker. […] Protein profiles were analyzed by Image Studio Lite analysis software for grayscale values. Grayscale correction values were calculated for each sample using the Formula: corrected grayscale value = grayscale value of the target protein /corresponding grayscale value of the internal reference. The degradation rate for the compounds was then calculated by comparing the corrected grayscale values of the compound group to the control group. Table 7 Degradation rate (%) of ERα by the PROTAC compounds of the present disclosure and positive control sample in MCF-7 cells

[3] = target: T1, ERα; assay: Degradation of ERα in T-47D cells (immunoblotting, 4 h); design: host or cells: T-47D
Experimental: T-47D cells were inoculated into 6-well plates at a density of 3×10^5 cells/well and cultured at 37°C, 5% CO2 for 24 h. After the cells were attached to the wall, 1µL of the compound solution in dimethyl sulfoxide (final concentration 0.15-1000 nM) was added and continued to be cultured in the incubator with 5% CO2 at 37°C for 4 h. After 4 h, the culture medium was discarded, and each well was washed once with pre-cooled 1×DPBS, and the cells were lysed with a mixture of 50 µL of RIPA lysis buffer (P0013B, Beyotime) and 1× protease inhibitor (P1005, Beyotime), and then centrifuged at 14,000 g for 30 min at 4°C after resting on ice for 20 min, and the supernatant was carefully collected to detect the protein level of ERα by protein immunoblotting (Immunoblotting).

Compound | IC50 [1] | Degradation rate (%) of ERα in MCF-7 cells ([2]; 1nM compound) | Degradation rate (%) of ERα in MCF-7 cells ([2]; 10nM compound) | Degradation rate (%) of ERα in T-47D cells ([3]; 1nM compound) | Degradation rate (%) of ERα in T-47D cells ([3]; 10nM compound) | IC50 ([1]; Homo sapiens, MCF7, 216 h)
O=C1CCC(N2Cc3cc4c(cc3C2=O)CCC2(CN(CC3CCC5(CC3)CCN(c3ccc([C@@H]6c7ccc(O)cc7CC[C@@H]6c6ccccc6)cc3)CC5)C2)O4)C(=O)N1 (stereo partly drawn) [A38] | 240 nM | -1% | -24% |  |  | 
O=C1CCC(N2Cc3cc4c(cc3C2=O)OC2(CC4)CN(C3CN(C4CCN(c5ccc([C@@H]6c7ccc(O)cc7CC[C@@H]6c6ccccc6)cc5)CC4)C3)C2)C(=O)N1 (stereo partly drawn) [A56] | 2790 nM |  |  | 38% | 38% | 
O=C1CCC(N2Cc3cc4c(cc3C2=O)CCC2(CN(C3CN(C5CCN(c6ccc([C@@H]7c8ccc(O)cc8CC[C@@H]7c7ccccc7)cc6)CC5)C3)C2)O4)C(=O)N1 (stereo partly drawn) [A57] | 2790 nM |  |  | 34% | 43% | 
O=C1CCC(N2Cc3c(ccc4c3OCC43CCN(C4CN(C5CCN(c6ccc([C@@H]7c8ccc(O)cc8CC[C@@H]7c7ccccc7)cc6)CC5)C4)CC3)C2=O)C(=O)N1 (stereo partly drawn) [A58] | 12.8 nM | 42% | 69% | 35% | 71% | 
O=C1CCC(N2C(=O)c3cc4c(cc3C2=O)OC2(CCN(C3CCN(C5CN(c6ccc([C@@H]7c8ccc(O)cc8CC[C@@H]7c7ccccc7)cc6)C5)CC3)CC2)C4)C(=O)N1 (stereo partly drawn) [A59] | 905 nM | 11% | 11% | 42% | 50% | 
O=C1CCC(N2Cc3c(ccc4c3OCC43CCN(C(=O)CN4CCC5(CC4)CCN(c4ccc([C@@H]6c7ccc(O)cc7CC[C@@H]6c6ccccc6)cc4)CC5)CC3)C2=O)C(=O)N1 (stereo partly drawn) [A62] | 15.2 nM | 52% | 82% | 73% | 89% | 
O=C1CCC(N2Cc3c(ccc4c3OCC43CCN(C(=O)CN4CCC5(CCN(c6ccc([C@@H]7c8ccc(O)cc8CC[C@@H]7c7ccccc7)cc6)CC5)C4)CC3)C2=O)C(=O)N1 (stereo partly drawn) [A63] | 3.24 nM | 69% | 68% | 67% | 80% | 
O=C1CCC(N2C(=O)c3cc4c(cc3C2=O)OC2(CCN(C(=O)CN3CCC5(CC3)CCN(c3ccc([C@@H]6c7ccc(O)cc7CC[C@@H]6c6ccccc6)cc3)CC5)CC2)C4)C(=O)N1 (stereo partly drawn) [A64] | 206 nM | 13% | 47% | 12% | 61% | 
O=C1CCC(N2Cc3c(ccc4c3OC3(CC4)CCN(C(=O)CN4CCC5(CC4)CCN(c4ccc([C@@H]6c7ccc(O)cc7CC[C@@H]6c6ccccc6)cc4)CC5)CC3)C2=O)C(=O)N1 (stereo partly drawn) [A65] | 125 nM | 23% | 23% | 14% | 50% | 
O=C1CCC(N2Cc3cc4c(cc3C2=O)OC2(CC4)CCN(C(=O)CN3CCC4(CC3)CCN(c3ccc([C@@H]5c6ccc(O)cc6CC[C@@H]5c5ccccc5)cc3)CC4)CC2)C(=O)N1 (stereo partly drawn) [A67] | 3.96 nM | 27% | 67% | 26% | 76% | 
O=C1CCC(N2C(=O)c3ccc4c(c3C2=O)OCC42CCN(C(=O)CN3CCC4(CC3)CCN(c3ccc([C@@H]5c6ccc(O)cc6CC[C@@H]5c5ccccc5)cc3)CC4)CC2)C(=O)N1 (stereo partly drawn) [A68] | 19.1 nM | 11% | 40% | 35% | 77% | 
O=C1CCC(N2Cc3c(ccc4c3OCC43CCN(CC(=O)N4CCC5(CC4)CCN(c4ccc([C@@H]6c7ccc(O)cc7CC[C@@H]6c6ccccc6)cc4)CC5)CC3)C2=O)C(=O)N1 (stereo partly drawn) [A74] |  | 28% | 62% | 73% | 87% | 
CN(C[C@H]1CC[C@H](C(=O)N2CCC3(CC2)COc2c3ccc3c2CN(C2CCC(=O)NC2=O)C3=O)CC1)[C@@H]1CCN(c2ccc([C@@H]3c4ccc(O)cc4CC[C@@H]3c3ccccc3)cc2)C[C@@H]1F (stereo partly drawn) [D12] |  | 39% | 61% | 55% | 81% | 
C[C@]12CC[C@@H]3c4ccc(O)cc4CC[C@H]3[C@@H]1CC[C@@H]2O [E2] |  |  |  |  |  | 34.8 nM
O=C1CCC(N2Cc3c(ccc4c3OCC43CCN(C[C@H]4CC[C@H](OC5CCN(c6ccc([C@@H]7c8ccc(O)cc8CC[C@@H]7c7ccccc7)cc6)CC5)CC4)CC3)C2=O)C(=O)N1 (stereo partly drawn) [G24] |  |  |  | 47% | 81% | 
O=C1CCC(N2Cc3c(ccc4c3OCC43CCN(S(=O)(=O)[C@H]4CC[C@H](C(=O)N5CCN(c6ccc([C@@H]7c8ccc(O)cc8CC[C@@H]7c7ccccc7)cc6)CC5)CC4)CC3)C2=O)C(=O)N1 (stereo partly drawn) [G26] | 32400 nM | 37% | 66% |  |  | 
O=C1CCC(N2C(=O)c3cc4c(cc3C2=O)OC2(CC4)CN(CC3CCN(c4ccc([C@@H]5c6ccc(O)cc6CC[C@@H]5c5ccccc5)cc4)CC3)C2)C(=O)N1 (stereo partly drawn) [H1] |  | -13% | -16% | -6% | -15% | 
O=C1CCC(N2C(=O)c3ccc4c(c3C2=O)OCC42CCN(C3CC4(CCN(c5ccc([C@@H]6c7ccc(O)cc7CC[C@@H]6c6ccccc6)cc5)CC4)C3)CC2)C(=O)N1 (stereo partly drawn) [L17] |  | -2% | 10% | 24% | 23% | 
CC1(C(=O)N2CCC(N3CCC4(CC3)COc3c4ccc4c3CN(C3CCC(=O)NC3=O)C4=O)CC2)CCN(c2ccc([C@@H]3c4ccc(O)cc4CC[C@@H]3c3ccccc3)cc2)CC1 (stereo partly drawn) [N 1] | 14.8 nM |  |  |  |  | 
